# Measurements as given in paper PMC5218480 (PLoS ONE, 2017).
# System: MV-4-11 cells
# Assay: Gene expression microarray analysis (Affymetrix PrimeView) and GSEA
# Format: cell-based, human
# Parameters: RFU PODN (11730768_x_at) / Fold change /veh PODN (11730768_x_at) / RFU LINC00158 (11744669_a_at) / Fold change /veh LINC00158 (11744669_a_at) / RFU DUSP10 (11751237_a_at) / Fold change /veh DUSP10 (11751237_a_at) / RFU ID3 (11757404_x_at) / Fold change /veh ID3 (11757404_x_at) / RFU PLEKHG5 (11737974_s_at) / Fold change /veh PLEKHG5 (11737974_s_at) / RFU LRRC4B (11730491_at) / Fold change /veh LRRC4B (11730491_at) / RFU GIMAP4 (11747438_a_at) / Fold change /veh GIMAP4 (11747438_a_at) / RFU KRT8 (11758183_x_at) / Fold change /veh KRT8 (11758183_x_at) / RFU CNN1 (11734310_a_at) / Fold change /veh CNN1 (11734310_a_at) / RFU VPS37D (11726825_at) / Fold change /veh VPS37D (11726825_at) / RFU C10orf10 (11716522_x_at) / Fold change /veh C10orf10 (11716522_x_at) / RFU KIR2DL2 /// KIR2DL4 /// KIR2DL5A /// KIR2DL5B /// KIR2DS1 /// KIR2DS2 /// KIR2DS3 /// KIR2DS4 /// KIR3DL3 /// KIR3DL3 /// KIR3DS1 (11738374_at) / Fold change /veh KIR2DL2 /// KIR2DL4 /// KIR2DL5A /// KIR2DL5B /// KIR2DS1 /// KIR2DS2 /// KIR2DS3 /// KIR2DS4 /// KIR3DL3 /// KIR3DL3 /// KIR3DS1 (11738374_at) / RFU C1QL1 (11718748_at) / Fold change /veh C1QL1 (11718748_at) / RFU TMPRSS4 (11747572_a_at) / Fold change /veh TMPRSS4 (11747572_a_at) / RFU HAMP (11756126_x_at) / Fold change /veh HAMP (11756126_x_at) / RFU RNFT2 (11725882_a_at) / Fold change /veh RNFT2 (11725882_a_at) / RFU NR4A2 (11747474_a_at) / Fold change /veh NR4A2 (11747474_a_at) / RFU ABCC12 (11746883_a_at) / Fold change /veh ABCC12 (11746883_a_at) / RFU TMEM136 (11760407_x_at) / Fold change /veh TMEM136 (11760407_x_at) / RFU CLDN22 /// WWC2 (11732394_at) / Fold change /veh CLDN22 /// WWC2 (11732394_at) / RFU HLA-DPB1 (11760878_x_at) / Fold change /veh HLA-DPB1 (11760878_x_at) / RFU SPINT1 (11716480_a_at) / Fold change /veh SPINT1 (11716480_a_at) / RFU GAP43 (11754022_s_at) / Fold change /veh GAP43 (11754022_s_at) / RFU A4GNT (11735810_at) / Fold change /veh A4GNT (11735810_at) / RFU PRB3 (11715151_x_at) / Fold change /veh PRB3 (11715151_x_at) / RFU TUBB4B (11761932_at) / Fold change /veh TUBB4B (11761932_at) / RFU CAPN14 (11732068_a_at) / Fold change /veh CAPN14 (11732068_a_at) / RFU TMCC2 (11721928_a_at) / Fold change /veh TMCC2 (11721928_a_at) / RFU IRGQ (11745062_a_at) / Fold change /veh IRGQ (11745062_a_at) / RFU FAM174B (11720279_a_at) / Fold change /veh FAM174B (11720279_a_at) / RFU TMPRSS4 (11748680_a_at) / Fold change /veh TMPRSS4 (11748680_a_at) / RFU FAM212B (11763350_a_at) / Fold change /veh FAM212B (11763350_a_at) / RFU PLEKHG5 (11743358_a_at) / Fold change /veh PLEKHG5 (11743358_a_at) / RFU ZSCAN30 (11745921_a_at) / Fold change /veh ZSCAN30 (11745921_a_at) / RFU CMKLR1 (11741424_a_at) / Fold change /veh CMKLR1 (11741424_a_at) / RFU LOC101060620 /// MAPK8IP1 (11723275_at) / Fold change /veh LOC101060620 /// MAPK8IP1 (11723275_at) / RFU SPTSSB (11747773_x_at) / Fold change /veh SPTSSB (11747773_x_at) / RFU PRSS12 (11739890_at) / Fold change /veh PRSS12 (11739890_at) / RFU BIN1 (11741810_x_at) / Fold change /veh BIN1 (11741810_x_at) / RFU WNT11 (11732464_a_at) / Fold change /veh WNT11 (11732464_a_at) / RFU C10orf10 (11716521_a_at) / Fold change /veh C10orf10 (11716521_a_at) / RFU C5orf56 (11738089_at) / Fold change /veh C5orf56 (11738089_at) / RFU CYB561 (11721691_x_at) / Fold change /veh CYB561 (11721691_x_at) / RFU ANKRD19P (11752326_a_at) / Fold change /veh ANKRD19P (11752326_a_at) / RFU OR2T12 /// OR2T33 /// OR2T8 (11738714_s_at) / Fold change /veh OR2T12 /// OR2T33 /// OR2T8 (11738714_s_at) / RFU VCAN (11748164_a_at) / Fold change /veh VCAN (11748164_a_at) / RFU JSRP1 (11732532_at) / Fold change /veh JSRP1 (11732532_at) / RFU KRTAP10-11 (11738290_x_at) / Fold change /veh KRTAP10-11 (11738290_x_at) / RFU MYO3A (11730013_a_at) / Fold change /veh MYO3A (11730013_a_at) / RFU EBF3 (11725865_a_at) / Fold change /veh EBF3 (11725865_a_at) / RFU CAMK2N1 (11719241_x_at) / Fold change /veh CAMK2N1 (11719241_x_at) / RFU C5orf56 (11738088_a_at) / Fold change /veh C5orf56 (11738088_a_at) / RFU OLFML3 (11715873_a_at) / Fold change /veh OLFML3 (11715873_a_at) / RFU LOC100653217 /// NTM (11731650_a_at) / Fold change /veh LOC100653217 /// NTM (11731650_a_at) / RFU MAPK11 (11762145_a_at) / Fold change /veh MAPK11 (11762145_a_at) / RFU FIZ1 (11724087_x_at) / Fold change /veh FIZ1 (11724087_x_at) / RFU OASL (11726364_x_at) / Fold change /veh OASL (11726364_x_at) / RFU SOX15 (11748057_x_at) / Fold change /veh SOX15 (11748057_x_at) / RFU CD79A (11719716_a_at) / Fold change /veh CD79A (11719716_a_at) / RFU HIST1H1D (11736915_at) / Fold change /veh HIST1H1D (11736915_at) / RFU CASKIN2 (11723855_a_at) / Fold change /veh CASKIN2 (11723855_a_at) / RFU LOC730098 (11760151_x_at) / Fold change /veh LOC730098 (11760151_x_at) / RFU OR4N2 (11742367_at) / Fold change /veh OR4N2 (11742367_at) / RFU PRRT2 (11749266_a_at) / Fold change /veh PRRT2 (11749266_a_at) / RFU SNX32 (11753110_a_at) / Fold change /veh SNX32 (11753110_a_at) / RFU CDHR5 (11726645_a_at) / Fold change /veh CDHR5 (11726645_a_at) / RFU RCAN1 (11760418_a_at) / Fold change /veh RCAN1 (11760418_a_at) / RFU FAM167A (11723789_a_at) / Fold change /veh FAM167A (11723789_a_at) / RFU FAM26E (11764081_at) / Fold change /veh FAM26E (11764081_at) / RFU ISYNA1 (11749810_s_at) / Fold change /veh ISYNA1 (11749810_s_at) / RFU ACY1 (11761880_at) / Fold change /veh ACY1 (11761880_at) / RFU 11764098_at / Fold change /veh 11764098_at / RFU SAMD14 (11745864_x_at) / Fold change /veh SAMD14 (11745864_x_at) / RFU NPB (11741838_a_at) / Fold change /veh NPB (11741838_a_at) / RFU TMPRSS6 (11731388_a_at) / Fold change /veh TMPRSS6 (11731388_a_at) / RFU KRTAP10-2 (11738614_at) / Fold change /veh KRTAP10-2 (11738614_at) / RFU ARHGAP8 /// PRR5-ARHGAP8 (11727945_x_at) / Fold change /veh ARHGAP8 /// PRR5-ARHGAP8 (11727945_x_at) / RFU KRTAP5-7 /// NADSYN1 (11734609_at) / Fold change /veh KRTAP5-7 /// NADSYN1 (11734609_at) / RFU RASL12 (11751679_a_at) / Fold change /veh RASL12 (11751679_a_at) / RFU CDKN2B (11736163_a_at) / Fold change /veh CDKN2B (11736163_a_at) / RFU PRF1 (11729649_at) / Fold change /veh PRF1 (11729649_at) / RFU, ZNF638 /// ZNF638-IT1 / Fold change vs veh, ZNF638 /// ZNF638-IT1 / RFU, PANK3 / Fold change vs veh, PANK3 / RFU, SH3YL1 / Fold change vs veh, SH3YL1 / RFU, ZEB2 / Fold change vs veh, ZEB2 / RFU, NRIP1 / Fold change vs veh, NRIP1 / RFU, PTTG1IP / Fold change vs veh, PTTG1IP / RFU, CAPN2 / Fold change vs veh, CAPN2 / RFU, MED14 / Fold change vs veh, MED14 / RFU, SNORA58 / Fold change vs veh, SNORA58 / RFU, C1orf63 / Fold change vs veh, C1orf63 / RFU, LRRFIP1 / Fold change vs veh, LRRFIP1 / RFU, NDUFAF7 / Fold change vs veh, NDUFAF7 / RFU, SLC12A2 / Fold change vs veh, SLC12A2 / RFU, IBTK / Fold change vs veh, IBTK / RFU, ESF1 / Fold change vs veh, ESF1 / Fold change vs veh, TMEM50B / RFU, TAOK1 / Fold change vs veh, TAOK1 / RFU, ACBD3 / Fold change vs veh, ACBD3 / RFU, TMA16 / Fold change vs veh, TMA16 / RFU, RWDD3 / Fold change vs veh, RWDD3 / RFU, BCAT1 / Fold change vs veh, BCAT1 / RFU, EDEM3 / Fold change vs veh, EDEM3 / RFU, TMEM33 / Fold change vs veh, TMEM33 / RFU, WDR75 / Fold change vs veh, WDR75 / RFU, AHCTF1 / Fold change vs veh, AHCTF1 / RFU, TFRC / Fold change vs veh, TFRC / RFU, ZDHHC17 / Fold change vs veh, ZDHHC17 / RFU, NOM1 / Fold change vs veh, NOM1 / RFU, ARL8B / Fold change vs veh, ARL8B / RFU, ZBTB11 / Fold change vs veh, ZBTB11 / RFU, TAMM41 / Fold change vs veh, TAMM41 / RFU, KIAA1704 /// LOC100996395 / Fold change vs veh, KIAA1704 /// LOC100996395 / RFU, ING1 / Fold change vs veh, ING1 / RFU, TRMT61B / Fold change vs veh, TRMT61B / RFU, FUBP3 / Fold change vs veh, FUBP3 / RFU, TP53 / Fold change vs veh, TP53 / RFU, TNKS2 / Fold change vs veh, TNKS2 / RFU, ZFP14 / Fold change vs veh, ZFP14 / RFU, ACTR2 / Fold change vs veh, ACTR2 / RFU, PPP3R1 / Fold change vs veh, PPP3R1 / RFU, PIK3R1 / Fold change vs veh, PIK3R1 / RFU, HNRNPA1 / Fold change vs veh, HNRNPA1 / RFU, RNF170 / Fold change vs veh, RNF170 / RFU, ZNF28 / Fold change vs veh, ZNF28 / RFU, RNGTT / Fold change vs veh, RNGTT / RFU, OGT / Fold change vs veh, OGT / RFU, BRD1 / Fold change vs veh, BRD1 / RFU, MARS / Fold change vs veh, MARS / RFU, ZNF655 / Fold change vs veh, ZNF655 / RFU, FAHD1 / Fold change vs veh, FAHD1 / RFU, BDP1 / Fold change vs veh, BDP1 / RFU, LRRCC1 / Fold change vs veh, LRRCC1 / RFU, ARID1A / Fold change vs veh, ARID1A / RFU, ZNF146 / Fold change vs veh, ZNF146 / RFU, ZNF330 / Fold change vs veh, ZNF330 / RFU, GPN3 / Fold change vs veh, GPN3 / RFU, C9orf123 / Fold change vs veh, C9orf123 / RFU, N4BP2L2 / Fold change vs veh, N4BP2L2 / RFU, ARFIP1 / Fold change vs veh, ARFIP1 / RFU, FAM179B / Fold change vs veh, FAM179B / RFU, BCL10 / Fold change vs veh, BCL10 / RFU, UHRF1BP1L / Fold change vs veh, UHRF1BP1L / RFU, BET1 / Fold change vs veh, BET1 / RFU, CNOT2 / Fold change vs veh, CNOT2 / RFU, ZNF268 / Fold change vs veh, ZNF268 / Fold change vs veh, ZNF507 / RFU, DGCR2 / Fold change vs veh, DGCR2 / RFU, WDSUB1 / Fold change vs veh, WDSUB1 / Fold change vs veh, HSP90B1 /// MIR3652 / RFU, ADSS / Fold change vs veh, ADSS / RFU, GK / Fold change vs veh, GK / RFU, ZNF148 / Fold change vs veh, ZNF148 / RFU, TAF9 / Fold change vs veh, TAF9 / RFU, SLC1A5 / Fold change vs veh, SLC1A5 / RFU, SLMO2 / Fold change vs veh, SLMO2 / RFU, ABCC4 / Fold change vs veh, ABCC4 / RFU, LOC101060439 /// RAP1B / Fold change vs veh, LOC101060439 /// RAP1B / RFU, RFX7 / Fold change vs veh, RFX7 / RFU, GTPBP10 / Fold change vs veh, GTPBP10 / RFU, CNEP1R1 / Fold change vs veh, CNEP1R1 / RFU, BIVM-ERCC5 /// ERCC5 / Fold change vs veh, BIVM-ERCC5 /// ERCC5 / RFU, ILF3 / Fold change vs veh, ILF3 / RFU 11762660_at / Fold change /veh 11762660_at / RFU VCAN (11757783_s_at) / Fold change /veh VCAN (11757783_s_at) / RFU DDX43 (11728927_at) / Fold change /veh DDX43 (11728927_at) / RFU KRT8 (11758188_x_at) / Fold change /veh KRT8 (11758188_x_at) / RFU NKD1 (11759106_at) / Fold change /veh NKD1 (11759106_at) / RFU SRD5A1 (11742802_a_at) / Fold change /veh SRD5A1 (11742802_a_at) / RFU TPSAB1 /// TPSB2 (11721975_s_at) / Fold change /veh TPSAB1 /// TPSB2 (11721975_s_at) / RFU GSTM3 (11746129_a_at) / Fold change /veh GSTM3 (11746129_a_at) / RFU IL23R (11737362_x_at) / Fold change /veh IL23R (11737362_x_at) / RFU TMEM51 (11727254_a_at) / Fold change /veh TMEM51 (11727254_a_at) / RFU PIWIL2 (11732686_x_at) / Fold change /veh PIWIL2 (11732686_x_at) / RFU ORM1 (11744905_x_at) / Fold change /veh ORM1 (11744905_x_at) / RFU CCDC152 (11743942_at) / Fold change /veh CCDC152 (11743942_at) / RFU ECM1 (11717891_a_at) / Fold change /veh ECM1 (11717891_a_at) / RFU IL23R (11748794_a_at) / Fold change /veh IL23R (11748794_a_at) / RFU TNFAIP8L3 (11732012_x_at) / Fold change /veh TNFAIP8L3 (11732012_x_at) / RFU MBOAT4 (11741988_at) / Fold change /veh MBOAT4 (11741988_at) / RFU 11764193_at / Fold change /veh 11764193_at / RFU TMEM53 (11763286_at) / Fold change /veh TMEM53 (11763286_at) / RFU MAGEB2 (11727129_at) / Fold change /veh MAGEB2 (11727129_at) / RFU TMEM200A (11744735_a_at) / Fold change /veh TMEM200A (11744735_a_at) / RFU CCDC152 (11751479_a_at) / Fold change /veh CCDC152 (11751479_a_at) / RFU FAM211A (11726209_a_at) / Fold change /veh FAM211A (11726209_a_at) / RFU RGS16 (11746705_a_at) / Fold change /veh RGS16 (11746705_a_at) / RFU VCAN (11755009_s_at) / Fold change /veh VCAN (11755009_s_at) / RFU RHOB (11743442_s_at) / Fold change /veh RHOB (11743442_s_at) / RFU RGS16 (11720943_a_at) / Fold change /veh RGS16 (11720943_a_at) / RFU RGS16 (11720944_at) / Fold change /veh RGS16 (11720944_at) / RFU, VPS4B / Fold change vs veh, VPS4B / RFU, CREB1 / Fold change vs veh, CREB1 / RFU, DNAJC13 / Fold change vs veh, DNAJC13 / RFU, GNAQ / Fold change vs veh, GNAQ / RFU, CDK5R1 / Fold change vs veh, CDK5R1 / RFU, ZRANB3 / Fold change vs veh, ZRANB3 / RFU, CUL4A / Fold change vs veh, CUL4A / RFU, CCNY / Fold change vs veh, CCNY / RFU, UFL1 / Fold change vs veh, UFL1 / RFU, COG3 / Fold change vs veh, COG3 / RFU, DIAPH2 / Fold change vs veh, DIAPH2 / RFU, SKA2 / Fold change vs veh, SKA2 / RFU, AFF3 / Fold change vs veh, AFF3 / RFU, LMF1 / Fold change vs veh, LMF1 / RFU, IPO11 / Fold change vs veh, IPO11 / RFU, DFFB / Fold change vs veh, DFFB / RFU, FOXP1 / Fold change vs veh, FOXP1 / RFU, CARD8 / Fold change vs veh, CARD8 / RFU, STRN3 / Fold change vs veh, STRN3 / RFU, ADK / Fold change vs veh, ADK / RFU, RASSF2 / Fold change vs veh, RASSF2 / RFU, WIPF1 / Fold change vs veh, WIPF1 / RFU, LARP1B / Fold change vs veh, LARP1B / RFU, RASA1 / Fold change vs veh, RASA1 / RFU, RB1 / Fold change vs veh, RB1 / RFU, PPFIA1 / Fold change vs veh, PPFIA1 / RFU, MAT2A / Fold change vs veh, MAT2A / RFU, CCT5 / Fold change vs veh, CCT5 / RFU, WDR92 / Fold change vs veh, WDR92 / RFU, CUX1 / Fold change vs veh, CUX1 / RFU, TTC7A / Fold change vs veh, TTC7A / RFU, TMEM135 / Fold change vs veh, TMEM135 / RFU, DEPTOR / Fold change vs veh, DEPTOR / RFU, CPM / Fold change vs veh, CPM / RFU, DNAJB6 / Fold change vs veh, DNAJB6 / RFU, CACNA2D3 / Fold change vs veh, CACNA2D3 / RFU, DTX4 / Fold change vs veh, DTX4 / RFU, TFCP2 / Fold change vs veh, TFCP2 / RFU, GMCL1 /// GMCL1P1 / Fold change vs veh, GMCL1 /// GMCL1P1 / RFU, AEBP2 / Fold change vs veh, AEBP2 / RFU, SNHG1 /// SNORD22 /// SNORD25 /// SNORD26 /// SNORD27 /// SNORD28 /// SNORD29 /// SNORD31 / Fold change vs veh, SNHG1 /// SNORD22 /// SNORD25 /// SNORD26 /// SNORD27 /// SNORD28 /// SNORD29 /// SNORD31 / Fold change (Aza/veh), C12orf56 (ProbeSet 11735607_a_at) / Fold change (ACY-1035/veh), C12orf56 (ProbeSet 11735607_a_at) / Fold change (Aza/veh), FGFR1OP (ProbeSet 11751329_s_at) / Fold change (ACY-1035/veh), FGFR1OP (ProbeSet 11751329_s_at) / Fold change (Aza/veh), VPS36 (ProbeSet 11739960_a_at) / Fold change (ACY-1035/veh), VPS36 (ProbeSet 11739960_a_at) / RFU SYPL1 (11715823_x_at) / Fold change /veh SYPL1 (11715823_x_at) / RFU IGFBP7 (11715501_s_at) / Fold change /veh IGFBP7 (11715501_s_at) / RFU REEP3 (11722064_at) / Fold change /veh REEP3 (11722064_at) / RFU IGLL1 (11728026_x_at) / Fold change /veh IGLL1 (11728026_x_at): dose or concentration left out as unconfirmed
# Conditions: ProbeSet 11758440_s_at; LIST B
smiles,measurement,value
Nc1ccc(-c2cccs2)cc1NC(=O)c1ccc2c(c1)cc(C1CC1)n2CCN1CCOCC1 [ACY-1035],"RFU, RFX7",47.76 RFU
